Like-named read-outs stand apart in the source and are kept apart here.
What was measured:
Type in all cases: biochemical
Ec-DdRP [1] = target: T1, Ec-DdRP (Escherichia coli, UniProt P0A8T7+P0A8V2)
T1 construct: gene rpoB; multisubunit RNAP without added sigma, in assembled elongation complex; expressed in E. coli T7 Express from pVS10, Ni-, heparin and Q-sepharose purified; with DNA-directed RNA polymerase subunit alpha; DNA-directed RNA polymerase subunit omega

Ec-DdRP [2] = target: T1, Ec-DdRP; remark: listed apart in the source
Mt-DdRP = target: T2, Mt-DdRP (Homo sapiens, UniProt O00411); assay: single-nucleotide addition, denaturing PAGE; conditions: elongation complex, 100 μM analog, 1 min, 10 mM MgCl2, pH 7.5, 25 °C
T2 construct: gene POLRMT; expressed in E. coli from pRP009, Ni-, heparin and S-sepharose purified; in assembled elongation complex

[3] = elongation complex, FOR as A-substitute (incorporation rate 27 s^-1), 10 mM MgCl2, pH 7.5, 25 °C

T1 sequence (P0A7Z4 whole entry): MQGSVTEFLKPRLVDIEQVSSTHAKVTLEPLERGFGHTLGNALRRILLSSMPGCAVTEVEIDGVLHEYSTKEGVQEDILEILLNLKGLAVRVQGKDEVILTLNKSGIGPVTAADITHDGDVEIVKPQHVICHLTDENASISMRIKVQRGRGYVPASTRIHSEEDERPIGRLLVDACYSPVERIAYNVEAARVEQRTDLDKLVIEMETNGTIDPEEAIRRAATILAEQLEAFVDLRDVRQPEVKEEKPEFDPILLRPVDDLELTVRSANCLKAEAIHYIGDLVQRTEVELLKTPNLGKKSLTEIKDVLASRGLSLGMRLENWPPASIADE
T1 sequence (P0A8T7 whole entry): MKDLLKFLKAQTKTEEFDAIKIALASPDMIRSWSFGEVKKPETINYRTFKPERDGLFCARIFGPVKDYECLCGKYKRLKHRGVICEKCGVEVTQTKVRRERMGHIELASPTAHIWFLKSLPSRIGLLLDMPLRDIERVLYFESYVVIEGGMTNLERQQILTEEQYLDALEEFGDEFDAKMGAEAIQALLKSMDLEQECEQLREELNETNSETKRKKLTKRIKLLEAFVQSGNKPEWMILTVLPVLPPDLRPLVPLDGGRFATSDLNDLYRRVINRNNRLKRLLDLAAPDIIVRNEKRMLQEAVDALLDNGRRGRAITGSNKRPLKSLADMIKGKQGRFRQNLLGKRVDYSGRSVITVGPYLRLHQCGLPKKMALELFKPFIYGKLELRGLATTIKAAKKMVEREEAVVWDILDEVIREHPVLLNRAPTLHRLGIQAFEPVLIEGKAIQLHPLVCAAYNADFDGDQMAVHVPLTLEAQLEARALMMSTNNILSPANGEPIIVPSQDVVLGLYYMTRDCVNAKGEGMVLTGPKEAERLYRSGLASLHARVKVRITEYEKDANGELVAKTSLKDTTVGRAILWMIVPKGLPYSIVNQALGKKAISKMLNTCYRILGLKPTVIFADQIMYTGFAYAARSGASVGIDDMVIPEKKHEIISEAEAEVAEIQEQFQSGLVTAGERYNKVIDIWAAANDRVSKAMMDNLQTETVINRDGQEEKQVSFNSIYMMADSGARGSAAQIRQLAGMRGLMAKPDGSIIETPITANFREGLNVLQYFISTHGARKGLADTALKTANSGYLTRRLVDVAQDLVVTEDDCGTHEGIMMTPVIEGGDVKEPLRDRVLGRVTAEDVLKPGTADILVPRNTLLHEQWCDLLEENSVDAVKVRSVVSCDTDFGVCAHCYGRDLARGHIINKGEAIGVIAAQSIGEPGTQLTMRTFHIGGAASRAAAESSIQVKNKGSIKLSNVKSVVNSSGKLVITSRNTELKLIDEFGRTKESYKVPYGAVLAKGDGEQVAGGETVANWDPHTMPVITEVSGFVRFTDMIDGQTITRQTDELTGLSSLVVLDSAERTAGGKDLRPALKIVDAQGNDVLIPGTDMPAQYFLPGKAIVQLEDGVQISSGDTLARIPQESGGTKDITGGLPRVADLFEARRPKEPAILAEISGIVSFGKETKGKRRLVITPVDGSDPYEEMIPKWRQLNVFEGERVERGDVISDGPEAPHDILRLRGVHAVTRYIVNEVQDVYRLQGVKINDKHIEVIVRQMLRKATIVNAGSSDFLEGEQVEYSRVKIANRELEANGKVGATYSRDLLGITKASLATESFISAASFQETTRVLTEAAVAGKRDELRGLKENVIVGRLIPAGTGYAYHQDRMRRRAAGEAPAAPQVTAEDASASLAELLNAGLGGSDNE
T1 sequence (P0A8V2 whole entry): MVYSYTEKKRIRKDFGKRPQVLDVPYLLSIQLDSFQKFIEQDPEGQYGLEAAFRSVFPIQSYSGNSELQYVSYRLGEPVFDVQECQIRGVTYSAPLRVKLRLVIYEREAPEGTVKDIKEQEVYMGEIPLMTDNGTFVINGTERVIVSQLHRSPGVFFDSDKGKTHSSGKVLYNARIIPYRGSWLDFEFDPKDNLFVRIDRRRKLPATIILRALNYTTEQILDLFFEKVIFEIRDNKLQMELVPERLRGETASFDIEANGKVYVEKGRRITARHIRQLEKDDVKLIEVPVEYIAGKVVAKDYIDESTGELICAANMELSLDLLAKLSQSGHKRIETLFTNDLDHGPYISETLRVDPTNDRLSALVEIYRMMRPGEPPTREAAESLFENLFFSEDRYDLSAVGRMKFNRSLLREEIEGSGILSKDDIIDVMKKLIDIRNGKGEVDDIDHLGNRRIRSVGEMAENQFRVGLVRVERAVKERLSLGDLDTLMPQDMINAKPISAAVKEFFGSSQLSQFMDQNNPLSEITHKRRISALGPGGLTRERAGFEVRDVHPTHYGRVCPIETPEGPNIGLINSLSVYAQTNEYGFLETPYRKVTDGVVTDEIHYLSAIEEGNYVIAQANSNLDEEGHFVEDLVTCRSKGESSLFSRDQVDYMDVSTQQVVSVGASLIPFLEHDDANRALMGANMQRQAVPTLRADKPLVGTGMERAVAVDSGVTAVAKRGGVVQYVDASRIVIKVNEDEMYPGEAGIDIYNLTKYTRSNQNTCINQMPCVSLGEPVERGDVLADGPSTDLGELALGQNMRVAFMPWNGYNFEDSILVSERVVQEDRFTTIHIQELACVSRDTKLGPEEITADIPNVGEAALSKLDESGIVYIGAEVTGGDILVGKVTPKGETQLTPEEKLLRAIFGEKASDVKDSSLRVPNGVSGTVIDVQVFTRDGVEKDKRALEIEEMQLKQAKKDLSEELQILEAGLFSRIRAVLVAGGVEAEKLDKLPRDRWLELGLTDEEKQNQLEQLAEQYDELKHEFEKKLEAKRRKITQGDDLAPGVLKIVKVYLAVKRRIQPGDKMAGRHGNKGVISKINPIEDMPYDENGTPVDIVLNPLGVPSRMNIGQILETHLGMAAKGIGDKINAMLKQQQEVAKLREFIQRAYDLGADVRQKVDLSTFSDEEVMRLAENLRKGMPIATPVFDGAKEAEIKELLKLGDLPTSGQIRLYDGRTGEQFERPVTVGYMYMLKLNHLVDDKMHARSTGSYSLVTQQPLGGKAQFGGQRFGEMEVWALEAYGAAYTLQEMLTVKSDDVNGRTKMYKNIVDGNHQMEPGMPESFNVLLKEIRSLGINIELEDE
T1 sequence (P0A800 2-91, further chain): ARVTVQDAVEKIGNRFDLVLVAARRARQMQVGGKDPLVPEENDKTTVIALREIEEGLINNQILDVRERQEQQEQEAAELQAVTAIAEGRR
T2 sequence (O00411 42-1230): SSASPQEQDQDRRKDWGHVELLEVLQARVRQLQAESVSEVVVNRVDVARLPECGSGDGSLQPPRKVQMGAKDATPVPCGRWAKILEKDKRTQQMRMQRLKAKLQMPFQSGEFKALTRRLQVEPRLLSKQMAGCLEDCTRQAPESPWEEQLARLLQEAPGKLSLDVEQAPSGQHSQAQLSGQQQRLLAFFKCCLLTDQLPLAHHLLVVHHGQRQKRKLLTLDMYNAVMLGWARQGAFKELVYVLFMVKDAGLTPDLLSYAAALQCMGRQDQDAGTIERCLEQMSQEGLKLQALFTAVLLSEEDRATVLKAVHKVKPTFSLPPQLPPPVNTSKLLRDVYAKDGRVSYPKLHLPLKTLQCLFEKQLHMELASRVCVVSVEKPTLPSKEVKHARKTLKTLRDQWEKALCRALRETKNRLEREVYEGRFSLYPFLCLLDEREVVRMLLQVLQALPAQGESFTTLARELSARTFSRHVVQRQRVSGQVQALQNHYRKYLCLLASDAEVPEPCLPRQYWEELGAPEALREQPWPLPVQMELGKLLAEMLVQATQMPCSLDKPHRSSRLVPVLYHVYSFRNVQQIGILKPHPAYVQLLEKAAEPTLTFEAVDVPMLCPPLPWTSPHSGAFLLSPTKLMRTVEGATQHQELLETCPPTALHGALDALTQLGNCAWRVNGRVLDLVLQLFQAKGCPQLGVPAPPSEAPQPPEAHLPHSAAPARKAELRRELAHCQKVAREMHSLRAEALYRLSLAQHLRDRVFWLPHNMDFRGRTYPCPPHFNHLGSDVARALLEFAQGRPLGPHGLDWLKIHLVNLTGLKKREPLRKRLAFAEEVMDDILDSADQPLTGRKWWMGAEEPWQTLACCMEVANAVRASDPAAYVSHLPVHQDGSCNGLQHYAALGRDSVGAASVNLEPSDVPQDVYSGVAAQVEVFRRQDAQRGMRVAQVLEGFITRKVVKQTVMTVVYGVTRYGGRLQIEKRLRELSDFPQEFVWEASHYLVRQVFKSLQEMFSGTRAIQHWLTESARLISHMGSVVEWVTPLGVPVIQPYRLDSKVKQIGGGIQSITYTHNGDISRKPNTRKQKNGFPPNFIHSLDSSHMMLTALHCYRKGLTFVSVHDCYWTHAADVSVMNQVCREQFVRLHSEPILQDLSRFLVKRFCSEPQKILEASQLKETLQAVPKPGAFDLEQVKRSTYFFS

Nc1ncnc2c([C@@H]3O[C@H](COP(=O)(O)OP(=O)(O)OP(=O)(O)O)[C@@H](O)[C@H]3O)n[nH]c12 [FOR triphosphate]
koff (Ec-DdRP [1]; [3]): 74 to 220 s⁻¹ | kon (Ec-DdRP [2]; [3]): 3.1e+06 to 6.6e+06 M⁻¹ s⁻¹ | single-nucleotide addition, denaturing PAGE (Mt-DdRP; incorporated in place of adenine): FOR was incorporated in place of adenine by all RNAPs in our set

Nc1ncnc2c1ncn2[C@@H]1O[C@H](COP(=O)(O)OP(=O)(O)OP(=O)(O)O)[C@@H](O)[C@H]1O [ATP]
koff (Ec-DdRP [1]): 5.6 to 19 s⁻¹ | kon (Ec-DdRP [2]): 1.2e+06 to 1.5e+06 M⁻¹ s⁻¹

NC(=O)c1[nH]nc([C@@H]2O[C@H](COP(=O)(O)OP(=O)(O)OP(=O)(O)O)[C@@H](O)[C@H]2O)c1O (mixture of isomers) [PYR 5′-triphosphate]
single-nucleotide addition, denaturing PAGE (Mt-DdRP; incorporated in place of uridine): all RNAPs in our set incorporated PYR in place of uridine
